Where “and” joins values, the source holds several entries; their conditions need not be identical. Identical values can stand only once.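 Test compounds were applied to cells in 96-well plates for 48 hours at 5 doses. GI50 is the concentration that inhibits growth by half. Definition used: TGI = concentration required for complete inhibition of growth.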
Assays:
Experiment in all cases: inhibition of tumour cell growth, NCI panel, 48 h
[1] = system: MDA-MB-468 breast
[2] = system: 786-0 renal
[3] = system: A498 renal
[4] = system: A549 NSCLC
[5] = system: BT-549 breast
[6] = system: CAKI-1 renal
[7] = system: CCRF-CEM leukemia
[8] = system: DU-145 prostate
[9] = system: EKVX NSCLC
[10] = system: HCC-2998 colon
[11] = system: HL-60(TB) leukemia
[12] = system: HOP-92 NSCLC
[13] = system: HS 578T breast
[14] = system: HT29 colon
[15] = system: IGROV1 ovarian
[16] = system: K-562 leukemia
[17] = system: KM12 colon
[18] = system: M14 melanoma
[19] = system: MALME-3M melanoma
[20] = system: MDA-MB-231 breast
[21] = system: MDA-MB-435
[22] = system: NCI-H226 lung
[23] = system: NCI-H522 lung
[24] = system: NCI/ADR-RES ovarian
[25] = system: OVCAR-4 ovarian
[26] = system: OVCAR-5 ovarian
[27] = system: OVCAR-8 ovarian
[28] = system: PC-3 prostate
[29] = system: RPMI-8226 leukemia
[30] = system: RXF 393 renal
[31] = system: SF-268 CNS
[32] = system: SF-539 CNS
[33] = system: SK-MEL-2 melanoma
[34] = system: SK-MEL-28 melanoma
[35] = system: SK-MEL-5 melanoma
[36] = system: SK-OV-3 ovarian
[37] = system: SN12C renal
[38] = system: SNB-19 CNS
[39] = system: SNB-75 CNS
[40] = system: SR leukemia
[41] = system: T-47D breast
[42] = system: TK-10 renal
[43] = system: UACC-257 melanoma
[44] = system: UACC-62 melanoma
[45] = system: UO-31 renal

## COC(=O)Nc1nc2ccc(Sc3ccc(NC(=O)Nc4cc(C(F)(F)F)ccc4F)cc3)cc2[nH]1
[1]
  GI50: 0.882 µM
  TGI: 4.75 µM

## C[C@]12CC[C@@H]3c4ccc(O)cc4CC[C@H]3[C@@H]1CC[C@@H]2NS(=O)(=O)c1ccc(-c2ccccc2)cc1
[1]
  GI50: 2.96 µM
  TGI: 38.8 µM

## O=c1c2cc(F)ccc2sc2c(NCCCN3CCCC3)nc3ccccc3c12
[1]
  GI50: 1.17 µM
  TGI: 2.67 µM

## O=[N+]([O-])c1cccc(-c2ncc(-c3ccc(Cl)cc3Cl)[nH]2)c1
[1]
  GI50: 1.63 µM
  TGI: 3.54 µM

## C#Cc1cccc(Nc2ncnc3ccc(-c4cncc(NS(C)(=O)=O)c4)cc23)c1
[1]
  GI50: 0.208 µM
  TGI: 0.731 µM

## CCCCCCCCCCCCCCCCCC1=NC(C)(C)CN1CCO
[1]
  GI50: 1.59 µM
  TGI: 3.04 µM

## COc1cc(OC)c(/C=C/S(=O)(=O)Cc2ccc(OC)c(NCC(=O)O)c2)c(OC)c1
[1]
  GI50: 0.121 µM and 0.187 µM
  TGI: > 100 µM

## Cc1cnc2[nH]c(-c3ccccc3)cc(=O)c2c1
[1]
  GI50: 24.6 µM
  TGI: > 100 µM

## Cc1ccc(OCCCCCCNCCO)c(C)c1
[1]
  GI50: 8.48 µM
  TGI: 23.6 µM

## CCCCCCCCCCCCNC(=O)[C@H]1CSC(c2ccc(OC)c(F)c2)N1 (stereo partly drawn)
[1]
  GI50: 1.28 µM
  TGI: 2.82 µM

## CC(C)C[C@H](NC(=O)[C@@H](O)[C@H](N)Cc1ccccc1)C(=O)O
[1]
  GI50: 53.4 µM
  TGI: > 100 µM

## O=c1[nH]c(-c2ccccn2)nc2sc3c(c12)CCCCCC3
[1]
  GI50: 1.66 µM
  TGI: > 100 µM

## CC(C)(C)c1cc(C(=O)Nc2cc3ccccc3cc2C(=O)NCCN)cc(C(C)(C)C)c1
[1]
  GI50: 0.347 µM
  TGI: 0.989 µM

## C=C(C)[C@@H]1CCC[C@]2(C(=O)O)CC[C@]3(C)[C@@H](CC[C@@H]4[C@@]5(C)C/C(=C/c6ccncc6)C(=O)C(C)(C)[C@@H]5CC[C@]43C)[C@@H]12
[1]
  GI50: 2.1 µM
  TGI: 5.49 µM

## Cn1cc(-c2cc(N)n3nc(-c4c[nH]c5ccccc45)cc3n2)c2cc(Br)ccc21
[2]
  GI50: 1.88 µM
  TGI: 4.1 µM
[3]
  GI50: 2.06 µM
  TGI: 7.26 µM
[4]
  GI50: 1.91 µM
  TGI: 5.18 µM
[5]
  GI50: 14.1 µM
  TGI: 44.6 µM
[6]
  GI50: 1.58 µM
  TGI: 3.16 µM
[7]
  GI50: 2.24 µM
  TGI: 6.75 µM
[8]
  GI50: 3.33 µM
  TGI: 12.3 µM
[9]
  GI50: 1.83 µM
  TGI: 4.37 µM
[10]
  GI50: 1.78 µM
  TGI: 3.39 µM
[11]
  GI50: 2.86 µM
  TGI: 9.81 µM
[12]
  GI50: 2.25 µM
  TGI: 5.54 µM
[13]
  GI50: 2.56 µM
  TGI: 9.25 µM
[14]
  GI50: 1.77 µM
  TGI: 3.62 µM
[15]
  GI50: 1.99 µM
  TGI: 4.52 µM
[16]
  GI50: 3.44 µM
  TGI: > 100 µM
[17]
  GI50: 1.94 µM
  TGI: 4.09 µM
[18]
  GI50: 1.79 µM
  TGI: 4.09 µM
[19]
  GI50: 1.87 µM
  TGI: 3.31 µM
[20]
  GI50: 1.91 µM
  TGI: 3.5 µM
[21]
  GI50: 2.07 µM
  TGI: 4.65 µM
[1]
  GI50: 1.56 µM
  TGI: 3.04 µM
[22]
  GI50: 4.76 µM
  TGI: 42.9 µM
[23]
  GI50: 1.65 µM
  TGI: 3.34 µM
[24]
  GI50: 2.22 µM
  TGI: 5.09 µM
[25]
  GI50: 3.06 µM
  TGI: 11.2 µM
[26]
  GI50: 1.91 µM
  TGI: 3.93 µM
[27]
  GI50: 2.84 µM
  TGI: 8.51 µM
[28]
  GI50: 2.09 µM
  TGI: 5.36 µM
[29]
  GI50: 2.98 µM
  TGI: 9.57 µM
[30]
  GI50: 1.85 µM
  TGI: 4.65 µM
[31]
  GI50: 2.13 µM
  TGI: 5.87 µM
[32]
  GI50: 1.75 µM
  TGI: 3.22 µM
[33]
  GI50: 1.88 µM
  TGI: 4.27 µM
[34]
  GI50: 1.85 µM
  TGI: 3.52 µM
[35]
  GI50: 1.92 µM
  TGI: 3.82 µM
[36]
  GI50: 6.31 µM
  TGI: > 100 µM
[37]
  GI50: 1.91 µM
  TGI: 3.87 µM
[38]
  GI50: 2.02 µM
  TGI: 4.39 µM
[39]
  GI50: 2.05 µM
  TGI: 9.74 µM
[40]
  GI50: 5.95 µM
  TGI: > 100 µM
[41]
  GI50: 1.97 µM
  TGI: 4.72 µM
[42]
  GI50: 2.08 µM
  TGI: 5.53 µM
[43]
  GI50: 1.95 µM
  TGI: 4.31 µM
[44]
  GI50: 1.65 µM
  TGI: 3.28 µM
[45]
  GI50: 1.71 µM
  TGI: 3.53 µM

## CC1(C)CC2(C)OC2C2(C1)N=NC(=Nc1ccccc1)O2 (stereo not drawn)
[1]
  GI50: 2.47 µM
  TGI: 7.28 µM

## Cn1cc(-c2nn3cc(-c4cccs4)nc3s2)c2cc(F)ccc21
[1]
  GI50: 1.44 µM
  TGI: 5.47 µM

## COc1ccc(N=C2NN=C(c3c[nH]c4ccccc34)CS2)cc1OC
[1]
  GI50: 14.6 µM
  TGI: > 60.5 µM

## CCNC(=O)Oc1ccc(/C(=C(\C)c2ccc(Cl)cc2)c2ccc(OCCN3CCCCC3)cc2)cc1
[1]
  GI50: 2.66 µM
  TGI: 9.5 µM

## Cc1cc(N)c2ccccc2[n+]1CCCCCCCCCC[n+]1c(C)cc(N)c2ccccc21
[1]
  GI50: 0.0647 µM
  TGI: 0.245 µM

## C#Cc1ccc(-n2c(/C=C/c3cc(OC)c(OC)c(OC)c3)nc3ncccc3c2=O)cc1
[1]
  GI50: 2.83 µM
  TGI: > 100 µM

## COc1ccc(N(Cc2cc(OC)c(OC)c(OC)c2)C2OC(=O)c3ccccc32)cc1 (stereo not drawn)
[1]
  GI50: 0.328 µM
  TGI: > 100 µM

## CCCCCCN1C(=O)CN=C1Nc1ccc2cc3ccc(NC4=NCC(=O)N4CCCCCC)cc3nc2c1
[1]
  GI50: 1.64 µM
  TGI: 3.4 µM

## C[C@H](NC(=O)CCC(F)(F)F)C(=O)N[C@@H]1C(=O)N(CCO)c2ncccc2-c2ccccc21
[1]
  GI50: > 100 µM
  TGI: > 100 µM

## COc1ncnc2c(-c3ccco3)cn(COCc3ccccc3)c12
[1]
  GI50: 2.4 µM
  TGI: > 50 µM

## CCN(CC)CCOc1ccc(C2=C(c3ccccc3)CCc3cc(OC)ccc32)cc1
[1]
  GI50: 0.138 µM
  TGI: 0.418 µM

## O=C(Nc1ccccc1)Nc1ccccc1CNc1nc(Nc2ccc(OCCN3CCCC3)cc2)ncc1Cl
[1]
  GI50: 1.96 µM
  TGI: 9.4 µM

## CN(C)c1ccc(Sc2ccc3nc(N)nc(N)c3c2)cc1
[1]
  GI50: 0.909 µM
  TGI: 2.65 µM

## Cn1c(COC(=O)NCCN2CCOCC2)nc2c(N3CCOCC3)nc(-c3ccccc3)nc21
[1]
  GI50: 1.14 µM
  TGI: 2.95 µM

## COc1ccc(S(=O)(=O)NCCNc2nccc(-c3c(-c4ccccc4)nc4sccn34)n2)cc1
[1]
  GI50: 3.03 µM
  TGI: > 100 µM

## CC(=O)N[C@@H]1CCC[C@H](C(=O)Nc2cc(-c3cnn4c3CC(C)(C)C4)c(Cl)cn2)C1
[1]
  GI50: < 0.01 µM
  TGI: 0.049 µM

## COc1ccc(-n2nc(C)c3c2N(C)C2(C)C[C@@H]4C3(C)[C@@H]3CC4(C2)N(C)c2c(c(C)nn2-c2ccc(OC)cc2)[C@H]3C)cc1 (stereo partly drawn)
[1]
  GI50: 4.76 µM
  TGI: 64.8 µM

## C#Cc1nc(C2=C(C)C(O)/C(=N/O)C2)cs1 (stereo not drawn)
[1]
  GI50: 17.6 µM
  TGI: > 100 µM

## CCCCCCN(CCCCCC)CC(O)c1cccc2ccc(Cl)cc12 (stereo not drawn)
[1]
  GI50: 3.19 µM
  TGI: 14.6 µM

## Cc1csc(Nc2nc(-c3cccc(Cl)c3)nc(C(Cl)(Cl)Cl)n2)n1
[1]
  GI50: 0.728 µM
  TGI: 2.18 µM

## COc1cc(/C=C\c2cccnc2Nc2ccccc2)cc(OC)c1OC
[1]
  GI50: 6.77 µM
  TGI: 48.7 µM

## COc1cc(OC)cc(N2CCN(C(=O)Nc3nc4cc(F)ccc4nc3OC)CC2)c1
[1]
  GI50: 0.0283 µM
  TGI: 65.1 µM

## CC(=O)Nc1ccc(-n2cnc3cc(-c4ccc(OCCN5CCCCC5)cc4)ccc32)cc1
[1]
  GI50: 5.64 µM
  TGI: 14.1 µM

## CC(C)n1nc(C#Cc2cccc(NC(=O)c3cccc(C(F)(F)F)c3)c2)c2c(N)ncnc21
[1]
  GI50: 4.54 µM
  TGI: 28.4 µM

## COc1cc(C(=O)N/N=C/c2cccc([N+](=O)[O-])c2)cc(OC)c1OC
[1]
  GI50: 2.77 µM
  TGI: 14 µM

## CCOc1cccnc1/C=N/NC(N)=S
[1]
  GI50: 2.54 µM
  TGI: 13.3 µM

## CC(C)(C)c1ccc(S(=O)(=O)N[C@H]2CC[C@H]3[C@@H]4CCc5cc(O)ccc5[C@H]4CC[C@]23C)cc1
[1]
  GI50: 2.74 µM
  TGI: 9.6 µM

## N#Cc1ccc(N2Cc3cc(Cl)ccc3OC3=C2C(=O)N(Cc2ccccc2)C3=O)cc1
[1]
  GI50: 1.22 µM
  TGI: 3.26 µM

## C=CC[PH+](c1ccccc1)c1ccccc1.C=CC[PH+](c1ccccc1)c1ccccc1.[Cl][Pt][Cl]
[1]
  GI50: 2.64 µM
  TGI: 7.1 µM

## O=c1[nH]c2cc(O)ccc2n2cc3c(F)cccc3c12
[1]
  GI50: 1.36 µM
  TGI: > 100 µM
